Measurements reported in ChEMBL document CHEMBL3351459, “Present status of quinoxaline motifs: excellent pathfinders in therapeutic medicine” (Eur J Med Chem, 2014).
≈ marks a conversion by molar mass, not a printed value.

Tests used:
[1] = test system: Human immunodeficiency virus 1; assay: Antiviral activity against Human immunodeficiency virus 1; format: functional, organism-based
[2] = Cytotoxicity against human HCT15 cells; format: functional, cell-based; conditions: HCT-15
[3] = test system: T47D; assay: Cytotoxicity against human T47D cells; format: functional, cell-based
[4] = test system: MDA-MB-468; assay: Cytotoxicity against human MDA-MB-468 cells; format: functional, cell-based
[5] = Cytotoxicity against human SKOV3 cells; format: functional, cell-based; conditions: SK-OV-3
[6] = test system: Leishmania infantum; assay: Leishmanicidal activity against Leishmania infantum; format: functional, organism-based
[7] = test system: Trichomonas vaginalis; assay: […] activity against Trichomonas vaginalis assessed as growth inhibition after 24 hrs; format: functional
[8] = Elimination half life in iv dosed rat; format: ADME, organism-based; conditions: in vivo, read-out: beta t1/2 (converted)
[9] = Elimination half life in iv dosed dog; format: ADME, organism-based, Canis lupus familiaris; conditions: in vivo, read-out: beta t1/2 (converted)
[10] = Drug elimination in human patient kidney at starting dose of 9 mg/m2 administered as 5 or 20 mins intravenous infusion on days 1 to 5 every 21 days; format: ADME; conditions: urine, read-out: Drug excretion
[11] = Primary phase half life in im dosed goat; format: ADME, organism-based, Capra hircus; conditions: in vivo, read-out: alphat1/2 (converted)
[12] = test system: Leishmania infantum; assay: Antileishmanial activity against Leishmania infantum; format: functional, organism-based
[13] = target: SRSF protein kinase 1 (Homo sapiens, UniProt Q96SB4); assay: Inhibition of SRPK1 kinase (unknown origin)
[14] = test system: Mycobacterium tuberculosis; assay: Antimycobacterial activity against Mycobacterium tuberculosis H37Rv; format: functional
[15] = test system: Human immunodeficiency virus 1; assay: Antiviral activity against HIV1 3B infected in human MT4 cells assessed as inhibition of virus-induced cytopathic effect after 5 days by MTT assay; format: functional, organism-based; conditions: Human immunodeficiency virus 1, 3B, MT4, 120 h
[16] = Cytotoxicity against human MT4 cells assessed as reduction cell viability after 5 days by MTT assay; format: cell-based
[17] = test system: Candida; assay: Antifungal activity against Candida assessed as growth inhibition; format: functional
[18] = test system: Rattus norvegicus; assay: Anti-inflammatory activity in Wistar rat at 100 mg/kg assessed as protection against edema formation dosed 1 hr before carrageenan challenge measured at end of 3rd hr by plethysmography; format: functional
[19] = test system: Plasmodium falciparum; assay: Antimalarial activity against Plasmodium falciparum; format: functional, organism-based
[20] = Drug elimination in pig at 50 ppm; format: ADME, organism-based, Sus scrofa; conditions: in vivo, read-out: Drug excretion
[21] = test system: Leishmania amazonensis; assay: Antileishmanial activity against Leishmania amazonensis; format: functional, organism-based

Chain of SRSF protein kinase 1 (Q96SB4 whole entry): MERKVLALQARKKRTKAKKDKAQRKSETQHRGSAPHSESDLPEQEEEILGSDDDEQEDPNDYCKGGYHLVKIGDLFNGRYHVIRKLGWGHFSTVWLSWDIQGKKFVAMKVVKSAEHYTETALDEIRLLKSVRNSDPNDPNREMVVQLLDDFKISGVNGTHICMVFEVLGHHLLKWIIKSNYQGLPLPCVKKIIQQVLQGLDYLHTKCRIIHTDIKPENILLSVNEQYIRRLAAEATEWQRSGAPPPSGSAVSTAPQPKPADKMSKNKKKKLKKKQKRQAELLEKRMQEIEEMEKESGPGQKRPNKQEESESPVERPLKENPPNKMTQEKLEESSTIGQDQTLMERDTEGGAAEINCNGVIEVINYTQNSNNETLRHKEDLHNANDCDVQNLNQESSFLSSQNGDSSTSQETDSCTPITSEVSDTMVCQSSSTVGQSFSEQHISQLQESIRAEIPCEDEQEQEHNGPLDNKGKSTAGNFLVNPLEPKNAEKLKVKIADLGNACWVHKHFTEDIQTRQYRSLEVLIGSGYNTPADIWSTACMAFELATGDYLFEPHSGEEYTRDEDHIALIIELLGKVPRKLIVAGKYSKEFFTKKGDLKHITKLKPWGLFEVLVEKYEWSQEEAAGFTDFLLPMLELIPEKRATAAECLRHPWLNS

## Cc1cc2ncc(=O)n(CC(O)CO)c2cc1C (centres undefined)
[1]
  EC50: 0.15 µg/mL (≈ 0.604 µM)

## CCCCCNCc1ccc2c(c1)C(=O)c1nccnc1C2=O
[2]
  IC50: 50 nM
[3]
  IC50: 80 nM
[4]
  IC50: 200 nM
[5]
  IC50: 400 nM

## N#Cc1c(NC(=O)N2CCN(c3ccc(C(F)(F)F)cc3)CC2)[n+]([O-])c2ccc(Cl)cc2[n+]1[O-]
[6]
  IC50: 5700 nM

## Cc1c(NCc2ccc(Cl)c(Cl)c2)[n+]([O-])c2cc(F)c(F)cc2[n+]1[O-]
[7]
  MIC: 6.25 µg/mL (≈ 16.2 µM)

## C=CCCCOc1cnc2cc(C)c(C)cc2n1
[1]
  EC50: 0.22 µg/mL (≈ 0.908 µM)

## C[C@@H](Oc1ccc(Oc2cnc3ccc(Cl)cc3n2)cc1)C(=O)O [R(+)XK469]
[8]
  half-life: 13.5 h
[9]
  half-life: 13.2 h
[10]
  dose excreted: 7%

## CC(=O)c1c(C)[n+]([O-])c2ccccc2[n+]1[O-] [MEQUINDOX]
[11]
  half-life: 0.28 h

## N#Cc1c(NC(=O)C2CCCCC2)[n+]([O-])c2ccc(Cl)cc2[n+]1[O-]
[12]
  IC50: 2500 nM

## O=C(O)c1ccc2cc3nc(-c4cccs4)c(-c4cccs4)nc3cc2c1
[13]
  IC50: 40 nM

## N#Cc1c(Nc2ccc(F)cc2)[n+]([O-])c2ccc(Cl)cc2[n+]1[O-]
[14]
  IC90: < 6.25 µg/mL

## CCCNC(=O)c1c(C)[n+]([O-])c2ccc(Cl)cc2[n+]1[O-]
[14]
  IC90: < 0.19 µg/mL

## c1ccc(-c2nc3ccccc3nc2-c2ccccc2)cc1
[15]
  IC50: 3.84 µg/mL (≈ 13.6 µM)
[16]
  CC50 at 120 h: 15.3 µg/mL (≈ 54.1 µM)

## O=c1[nH]c2cc3cccnc3c(Cl)c2nc1CBr
[17]
  MIC: 31.2 µg/mL (≈ 96.3 µM)

## Cc1c(C(=O)Nc2ccccc2)[n+]([O-])c2cc(Cl)c(Cl)cc2[n+]1[O-]
[14]
  IC90: < 6.25 µg/mL

## Cc1nc2ccccc2nc1OCC(=O)N/N=C/c1ccc(Cl)cc1
[18]
  inhibition in vivo at 100 mg/kg: 65.9%

## [O-][n+]1c(Cl)c(OC2CCCCC2)nc2ccc(F)cc21
[19]
  IC50: 4100 nM

## COC(=O)N/N=C/c1c[n+]([O-])c2ccccc2[n+]1[O-] [CARBADOX]
[20]
  dose excreted: 90%

## N#Cc1c(NC(=O)CCCCl)[n+]([O-])c2ccc(Cl)cc2[n+]1[O-]
[21]
  IC50: 700 nM
